Experimental data published in publication PMC9127185, “A Pyridazinone Compound for Effectively Treating Non-alcoholic Steatohepatitis by Targeting THRβ” (Frontiers in Chemistry, 2022).
Entries after “also recorded” stand apart in the source; their conditions may differ. Read-outs that look alike come from different tables or passages of the source.

Assays:
[1] = Pharmacokinetic study after oral administration, plasma by UPLC-MS/MS; type: in vivo, C57BL/6J mice; settings: for Cmax / Tmax / CL/F / MRT last / MRT inf / half-life: C57BL/6J, mouse, mice plasma; for CL/F: read-out: CLz/F; for MRT last: read-out: MRT (0-t) (converted); for MRT inf: read-out: MRT (0-∞) (converted); for half-life: read-out: t1/2z
Experimental: Sorvall Biofuge Stratos high-speed refrigerated centrifuge was bought from the Thermo Fisher Scientific Co. Ltd. (Shanghai, China); EL204 electronic balance was selected from Shanghai Mettler-Toledo Instruments Co. Ltd. (Shanghai, China); IKA Vortex Genius 3 Vortex Mixer was purchased from Aika Instrument Equipment Co. Ltd. (Guangzhou, China); and the test was carried out using an AB SCIEX™ 5500 Q-Trap® mass spectrometer (Applied Biosystems, United States) coupled to a Shimadzu Prominence UPLC (ultra-performance liquid chromatography, Shimadzu, United States) system. It was equipped with a binary pump, a degasser, an auto sampler, and an automatic thermostatic column compartment. The column was utilized from Agela Technologies UHP Innoval C18 (2.1 × 50 mm, 1.9 μm; Agela Technologies; Made in China). The whole process with a gradient elution program is as follows: 0.00–0.50 min, 5% B; 0.50–1.50 min, 90% B; 1.50–3.00 min, 90% B; 3.00–3.10 min, 15% B; and 3.10–5.00 min, 15% B. The mobile phase was made up of 0.10% formic acid in water (A) and acetonitrile (B), and the velocity of flow was 0.50 ml/min. The auto sampler and column temperature were set at 15 and 40°C, respectively. The injection volume was 1 μl. The Q-Trap mass spectrometer was operated with positive electrospray ionization source (ESI) and scanned using the multiple-reaction monitoring (MRM) mode. The Analyst® software version 1.6.3 (Applied Bio-systems, AB SCIEX™, United States) was used to control the UPLC-MS/MS system. The best of the YWS01125 parameters was curtain gas, 35 psi; collision gas, medium; ion spray voltage, 5500 V; temperature, 500°C; ion source gas 1, 50 psi; and ion source gas 2, 50 psi. The quantitative analysis ion pairs of YWS01125 and MGL-3196 (IS) were m/z 446.2 → 375 and m/z 435.2 → 182, individually. The suitable collision energy (CE) of YWS01125 and IS was 42 and 50 eV, respectively, and the decluttering voltage (DP) was 160 and 180 V, respectively.
The frozen mice plasma samples and tissue homogenates were thawed at room temperature, vortexed for 1 min, then taken out in 10-μl aliquots in a 1.50-ml centrifuge tube, and this was then mixed with 1 μl of standard solution and 50 μl of internal standard (IS) solution, which was then dissolved and diluted with acetonitrile. Subsequently, it was vortexed for 3 min and at 14,000 rpm centrifugation for 5 min. The adopted 1 μl of the supernatant was used for sample injection analysis.
A total of 18 C57BL/6J mice were given YWS01125 by oral administration with a dose of 10, 20, and 40 mg/kg, respectively ([Lally et al., 2019]; [Kelly et al., 2014]; [Motamed et al., 2017]) (with the concentration of drug administration selected according to the study by Kelly et al.). The blood samples of 20 μl were collected and placed in heparinized tubes from the ophthalmic venous plexus before and at 0.03, 0.08, 0.16, 0.25, 0.50, 1, 2, 4, 6, 8, 12, and 24 h. The samples were immediately centrifuged at 14,000 rpm for 10 min at 4°C. The plasma was separated and stored below −80°C until UHPLC-MS/MS analysis.
The validated method was applied to the pharmacokinetic study of YWS01125 in normal C57BL/6J mice after oral administration, at doses of 10, 20, and 40 mg/kg suspensions with sodium carboxymethyl cellulose (CMCNa). YWS01125 was measured in the plasma until the last blood collection time (24 h). The main pharmacokinetic parameters of YWS01125 were processed by a no compartmental model using the DAS 2.0 software package, and the pharmacokinetic parameters are summarized in Table 4.

[2] = Stability of liver microsomes study (human); type: in vitro ADME; settings: human liver microsomes 0.50 mg/ml, NADPH-generating system, 37°C, 0-90 min
Experimental: Hypersil GOLD C18 column (4.6 × 150 mm, 5 μm, Thermo). A 0.025% ammonia aqueous solution in water (solvent A) and acetonitrile (solvent B) were used as mobile phases with gradient elution. The gradient was as follows: 0.01 min, 15% B; 5 min, 20% B; 12 min, 80% B; 16 min, 80% B; 16.01 min, 15% B; 19 min, 15% B; and 19.01 min, stopped. The timing interval was 19 min, and the flow rate was set at 1 ml/min.
The incubation system was carried out in 0.05 M Tris/KCl buffer (PH = 7.4) and included the following: pyrazinone compounds dissolved with dimethyl sulfoxide (DMSO), mouse liver microsomes and human liver microsomes at 0.50 mg/ml, 1.30 mM nicotinamide adenine dinucleotide sodium phosphate (NADP), 3.30 mM glucose-6-phosphate disodium salt (G-6-P), 0.40 units/mL glucose-6-phosphate dehydrogenase (G-6-PDH), and 3.30 mM magnesium chloride. […] After preincubation for 3 min in an 850-rpm blender (37°C), liver microsomes were added to initiate the incubation reaction (37°C). The incubation time was 0, 30, 60, and 90 min. After incubation, an equal volume of cold acetonitrile was added to stop the reaction, and an internal standard (0.05 mg/ml acetaminophen solution) was added. The samples were centrifuged at 10,000 rpm for 10 min to precipitate proteins ([Day et al., 2017]; [Manne et al., 2018]), and the 10 µL of the supernatant was taken for HPLC analysis.

THRβ = molecular target: T1, THRβ (Homo sapiens, UniProt P10828); assay: Selectivity and activity for THRβ; settings: in words, no data shown
T1 sequence (P10828 1-461): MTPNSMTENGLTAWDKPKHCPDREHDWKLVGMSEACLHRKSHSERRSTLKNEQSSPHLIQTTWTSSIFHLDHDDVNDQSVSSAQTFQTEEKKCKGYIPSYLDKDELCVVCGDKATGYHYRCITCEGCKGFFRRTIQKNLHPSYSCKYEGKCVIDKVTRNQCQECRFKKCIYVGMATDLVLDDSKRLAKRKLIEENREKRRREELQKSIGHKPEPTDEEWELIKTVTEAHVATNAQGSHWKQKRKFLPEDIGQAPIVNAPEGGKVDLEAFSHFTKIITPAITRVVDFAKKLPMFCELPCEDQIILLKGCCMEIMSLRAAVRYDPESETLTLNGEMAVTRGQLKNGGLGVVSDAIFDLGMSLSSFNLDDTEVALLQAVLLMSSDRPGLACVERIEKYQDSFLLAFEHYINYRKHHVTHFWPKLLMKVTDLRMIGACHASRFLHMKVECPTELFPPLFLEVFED

NASH = NASH pharmacodynamic study; type: in vivo; settings: in words, no data shown

Cmax ([1]; oral 10 mg/kg): 188 ± 30 ng/mL
Tmax ([1]; oral 10 mg/kg): 0.917 h
CL/F ([1]; oral 10 mg/kg): 160 ± 20 mL/min/kg
MRT last ([1]; oral 10 mg/kg): 3.42 h
MRT inf ([1]; oral 10 mg/kg): 4.04 h
half-life ([1]; oral 10 mg/kg): 3.15 ± 1.59 h
Cmax ([1]; oral 20 mg/kg): 293 ± 60.4 ng/mL
Tmax ([1]; oral 20 mg/kg): 1 h
CL/F ([1]; oral 20 mg/kg): 250 ± 280 mL/min/kg
MRT last ([1]; oral 20 mg/kg): 3.06 h
MRT inf ([1]; oral 20 mg/kg): 3.4 h
half-life ([1]; oral 20 mg/kg): 2.54 ± 0.633 h
Cmax ([1]; oral 40 mg/kg): 382 ± 30.6 ng/mL
Tmax ([1]; oral 40 mg/kg): 0.917 h
CL/F ([1]; oral 40 mg/kg): 280 ± 50 mL/min/kg
MRT last ([1]; oral 40 mg/kg): 4.57 h
MRT inf ([1]; oral 40 mg/kg): 4.94 h
half-life ([1]; oral 40 mg/kg): 3.03 ± 1.07 h
Time of highest concentration in the blood ([1]; mice, oral): 1 h
Metabolic stability / metabolite formation in liver microsomes [2]: no metabolites; also recorded: stable
SMILES: N#Cc1cn(-c2cc(Cl)c(Oc3cc(C4CCC4)c(=O)[nH]n3)c(Cl)c2)c(=O)[nH]c1=O [YWS01125, 1-(3,5-dichloro-4-((5-cyclobutyl-6-oxo-1,6-dihydropyridazin-3-yl)oxy)phenyl)-2,4-dioxo-1,2,3,4-tetrahydropyrimidine-5-carbonitrile]
Selectivity and activity for THRβ (THRβ): excellent activity; also recorded: best selectivity and activity
Effect on NASH (NASH): alleviation of NASH
